“Also recorded” adds a separate entry of the source.
Tests used:
[1] = molecular target: T1, human recombinant ALDH3A1 (Homo sapiens, UniProt P30838); experiment: ALDH3A1 enzymatic assay, benzaldehyde oxidation; format: biochemical; settings: for Enzymatic Activity, AVERAGE %: mean of triplicates, STDEV % in r34
T1 construct: 6xHis (C); made in house; host or cells: E. coli, with chaperone co-expression (pG-KJE8 plasmid)
T1 sequence (P30838 1-453): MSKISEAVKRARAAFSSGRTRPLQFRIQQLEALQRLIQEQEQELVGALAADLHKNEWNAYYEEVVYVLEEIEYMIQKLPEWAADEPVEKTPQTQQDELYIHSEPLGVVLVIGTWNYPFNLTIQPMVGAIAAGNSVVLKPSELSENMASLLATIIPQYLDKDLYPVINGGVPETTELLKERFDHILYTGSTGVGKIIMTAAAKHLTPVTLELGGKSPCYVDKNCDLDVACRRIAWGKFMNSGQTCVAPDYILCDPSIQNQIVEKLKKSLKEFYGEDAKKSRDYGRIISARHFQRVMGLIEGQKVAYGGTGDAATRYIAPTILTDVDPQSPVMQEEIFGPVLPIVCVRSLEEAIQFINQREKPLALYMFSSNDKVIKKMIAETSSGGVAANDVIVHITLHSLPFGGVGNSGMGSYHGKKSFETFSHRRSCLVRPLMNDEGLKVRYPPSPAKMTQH
Method: The ability of ALDH3A1 to oxidize benzaldehyde in the presence of P1 was estimated by monitoring the production of NADH as described earlier with minor modifications ([Voulgaridou et al., 2013]). Human recombinant ALDH3A1 was combined with P1 and diluted in Milli-Q water, at 1:1,000. The final reaction was placed in a 0.5 mL quartz cuvette containing 50 mM Tris-HCl pH 8.5, 50 mM 2-Mercaptoethanol, 1.5 mM […], 20 nM ALDH3A1, 20 μM P1, and 1 mM Benzaldehyde. The reaction was initiated by the addition of the benzaldehyde substrate and was monitored at 340 nm for 5 min using a spectrophotometer (Libra S22, Biochrom Ltd, Cambridge, United Kingdom). In the case of CB29, the final reaction contained 40 μM CB29. Enzymatic activity was calculated as dOD/dT∗molarextinctioncoeiffcient∗pathcorrection∗enzyme^′sconcentrationinfinalreaction where, dT = minutes, molar extinction coefficient = 6220 M^-1/cm, path correction = 1 cm.
All experiments were conducted in triplicates and presented as % of the control’s enzymatic activity. As a control, the final reaction contained the respective Milli-Q water volume without P1 or CB29.
At least three independent experiments were performed for each condition tested. The values are expressed as the mean ± standard deviation (SD). Statistical analysis was performed with Graph Pad Prism software (version 9.4.1) (Graph Pad Inc., La Jolla, CA, United States). For all assays, statistical differences between groups were evaluated either by Student’s t-test or ANOVA, for multiple comparisons, followed by Dunnett’s or Tukey’s test. A level of p < 0.01 was considered statistically significant.

[2] = molecular target: T1, human recombinant ALDH3A1; experiment: Peptide ELISA, P1 coated, serially diluted ALDH3A1; format: binding
Method: An ELISA with the synthetic peptide P1 was performed as described ([Thermo Scientific, 2010]). P1 (50 μg/mL) diluted in Coating Buffer (0.2 M sodium carbonate/bicarbonate, pH 9.4) was coated overnight at 4°C under agitation. After three washes with TBST (25 mM Tris, 0.15 M sodium chloride, pH 7.2 containing 0.1% Tween 20), the wells were blocked with 300 μL per well with Blocking Buffer (TBST containing 4% w/v BSA) overnight at 4°C under agitation. After another three washes with TBST, 100 μL of 2-fold serial dilutions of ALDH3A1 in Blocking Buffer were added in each well and the plate was incubated for 1 h at RT under gentle agitation. Following four washes with TBST, 100 μL of rabbit anti-ALDH3A1 antibody, diluted 1:1,000 in Blocking Buffer, were added and the plate was incubated for 2 h at RT under gentle agitation. After the plate was washed 4 times with TBST, it was incubated with 100 μL of anti-rabbit IgG horseradish-peroxidase conjugated and diluted 1:5,000 in Blocking Buffer, for 2 h at RT. Then, the plate was washed 6 times with TBST, and 100 μL of ABTS [2,2′-azino-bis(3-ethylbenzothiazoline-6-sulfonic acid)] solution (ready-to-use) were added. After 1 h of incubation in darkness at RT under agitation, the plate was measured at 405 nm, with wavelength correction at 650 nm, using an ELISA plate reader (EnSpire Multimode Plate Reader, Perkin Elmer, Waltham, MA, United States). During wash steps, liquids were dispersed in the sink, the plate was tapped vigorously on a paper towel, refilled with Wash Buffer, and incubated for 5 min at RT under agitation.
Next, peptide ELISA was performed to test whether the synthetic peptide P1 interacts with the hALDH3A1 protein. Specifically, P1 was coated in abundance in a 96-well plate and subsequently, hALDH3A1 was added to each well in serial dilutions. For detecting the putative peptide/ALDH3A1 interaction a rabbit anti-ALDH3A1 antibody along with a secondary horseradish peroxidase-conjugated anti-rabbit antibody were used in a sandwich ELISA. In each step, the excessive, unbound ALDH3A1 or antibody was removed through repetitive washes, while a ready-to-use ABTS solution was used as a colorimetric substrate for detecting the presence of horseradish peroxidase activity.

[3] = 20 μM P1 (n = 4) or 40 μM CB29 (n = 3)
[4] = X is log(dilution of ALDH3A1), P1 50 μg/ml coated

**Q.** For “WPTYVSPFRSPP [P1, …, prevailing 12-mer phage display peptide, synthesised by Genecust]”, which “Enzymatic activity, % of control, AVERAGE of experiments” value ([1]; 20 μM P1 (4 experiments) or 40 μM CB29 (3 experiments), 1 mM benzaldehyde, 20 nM ALDH3A1, pH 8.5, 340 nm, 5 min) is on record?
**A.** The value was 53.6795%.

**Q.** And the “25% Percentile, % of control activity” value [1, 3]?
**A.** The value was 48.44.

**Q.** What about the “75% Percentile, % of control activity” value [1, 3] of the same sequence?
**A.** The value was 60.33.

**Q.** What about the “Lower 95% CI of mean, % of control activity” value [1, 3] of the same sequence?
**A.** Its value is 43.07.

**Q.** And the “Maximum, % of control activity” value [1, 3]?
**A.** The value was 63.01.

**Q.** And the “Mean, % of control activity” value [1, 3]?
**A.** The value was 53.68.

**Q.** And the “Median, % of control activity” value [1, 3]?
**A.** The value was 52.27.

**Q.** What about the “Minimum, % of control activity” value [1, 3] of the same sequence?
**A.** The value was 47.18.

**Q.** And the “Upper 95% CI of mean, % of control activity” value [1, 3]?
**A.** Its value is 64.29.

**Q.** What about the “Reduction in hALDH3A1 activity against benzaldehyde” value ([1]; 20 μM P1, 20 nM ALDH3A1, 1 mM benzaldehyde, 50 mM Tris-HCl pH 8.5, 50 mM 2-mercaptoethanol, NADH at 340 nm, 5 min, vs control) of the same sequence?
**A.** Its value is roughly 50%.

**Q.** And the “Enzymatic activity, % of control (Mean%)” value ([1]; 20 μM P1, P1 Experiment 1, mean of n = 3, 1 mM benzaldehyde, 20 nM ALDH3A1, pH 8.5, 340 nm)?
**A.** Its value is 52.2857%.

**Q.** And the “Enzymatic activity, % of control (Mean%)” value ([1]; 20 μM P1, P1 Experiment 2, mean of n = 3, 1 mM benzaldehyde, 20 nM ALDH3A1, pH 8.5, 340 nm)?
**A.** Its value is 63.0078%.

**Q.** And the “Enzymatic activity, % of control (Mean%)” value ([1]; 20 μM P1, fourth experiment line of Sheet6, mean of n = 3, 1 mM benzaldehyde, 20 nM ALDH3A1, pH 8.5, 340 nm)?
**A.** The value was 47.1765%.

**Q.** And the “Enzymatic activity, % of control (Mean%)” value ([1]; 20 μM P1, third experiment line of Sheet6, mean of n = 3, 1 mM benzaldehyde, 20 nM ALDH3A1, pH 8.5, 340 nm)?
**A.** Its value is 52.2481%.

**Q.** And the “Effectiveness of inhibition compared with CB29” value ([1]; 20 μM P1 vs 40 μM CB29, benzaldehyde)?
**A.** Its value is “comparable to the inhibition capacity of the known hALD3A1 inhibitor CB29; also recorded: comparable with the inhibition caused by the CB29 molecule”.

**Q.** What about the “95,00% CI of diff, control vs. compound” value ([1]; Dunnett's multiple comparisons, 20 μM P1 or 40 μM CB29) of the same sequence?
**A.** Its value is 37,24 to 55,40.

**Q.** And the “Mean Diff, control vs. compound” value ([1]; Dunnett's multiple comparisons, 20 μM P1 or 40 μM CB29, % of control activity)?
**A.** Its value is 46.32.

**Q.** What about the “Enzymatic Activity, AVERAGE %” value ([1]; Experiment 3, 20μM P1, % of control (control = 100)) of the same sequence?
**A.** The value was 52.2481%.

**Q.** What about the “Enzymatic Activity, AVERAGE of triplicates” value ([1]; Experiment 3, 20μM P1, mean of triplicates, STDEV in r31) of the same sequence?
**A.** The value was 7.566 µmol/min/mg.

**Q.** And the “Enzymatic Activity, AVERAGE %” value ([1]; Experiment 4, 20μM P1, % of control (control = 100))?
**A.** The value was 47.1765%.

**Q.** And the “Enzymatic Activity, AVERAGE of triplicates” value ([1]; Experiment 4, 20μM P1, mean of triplicates, STDEV in r31)?
**A.** The value was 9.945 µmol/min/mg.

**Q.** What about the “Enzymatic Activity, AVERAGE of triplicates” value ([1]; P1 Experiment 1, 20 μM, mean of n = 3) of the same sequence?
**A.** Its value is 7.9584 µmol/min/mg.

**Q.** What about the “Enzymatic Activity, AVERAGE of triplicates” value ([1]; P1 Experiment 2, 20 μM, mean of n = 3) of the same sequence?
**A.** The value was 11.9878 µmol/min/mg.

**Q.** And the “Bottom, 95% CI (profile likelihood)” value ([2]; 4PL fit, P1 50 μg/ml coated)?
**A.** The value was -0,6000 to 0,3171.

**Q.** What about the “HillSlope, 95% CI (profile likelihood)” value ([2]; 4PL fit, P1 50 μg/ml coated) of the same sequence?
**A.** Its value is 0,7500 to 2,101.

**Q.** And the “LogIC50, 95% CI (profile likelihood)” value ([2]; 4PL fit, P1 50 μg/ml coated)?
**A.** Its value is -2,813 to -1,638.

**Q.** What about the “R squared (4PL fit)” value ([2]; 4PL fit, P1 50 μg/ml coated) of the same sequence?
**A.** Its value is 0.9777.

**Q.** And the “Top, 95% CI (profile likelihood)” value ([2]; 4PL fit, P1 50 μg/ml coated)?
**A.** Its value is 0,5633 to 0,6007.

**Q.** And the “Binding of P1 to ALDH3A1” value ([2]; P1 50 μg/mL coated, 2-fold serial dilutions of ALDH3A1, 405 nm-650 nm)?
**A.** The value was “ALDH3A1 dose-dependent increase in absorbance was observed, indicating the specific binding of P1 to ALDH3A1; also recorded: confirmed the interaction of ALDH3A1 with the synthetic peptide P1 in a concentration-dependent manner”.

**Q.** And the “Bottom (4PL fit)” value ([2]; Sigmoidal, 4PL, X is log(dilution of ALDH3A1), P1 50 μg/ml coated)?
**A.** The value was 0.2386.

**Q.** And the “Top (4PL fit)” value ([2]; Sigmoidal, 4PL, X is log(dilution of ALDH3A1), P1 50 μg/ml coated, OD 405nm - 650nm)?
**A.** Its value is 0.5773.

**Q.** What about the “HillSlope (4PL fit)” value [2, 4] of the same sequence?
**A.** The value was 1.408.

**Q.** And the “LogIC50 (4PL fit)” value [2, 4]?
**A.** The value was -1.813.

**Q.** What about the “Span (4PL fit)” value [2, 4] of the same sequence?
**A.** The value was 0.3387.

Source: publication PMC10067601, “Identification of a peptide ligand for human ALDH3A1 through peptide phage display: Prediction and characterization of protein interaction sites and inhibition of ALDH3A1 enzymatic activity” (Frontiers in Molecular Biosciences, 2023)
